One experiment concerns HL-60. As to the kind of experiment: The compound was tested for its inhibitory activity against HL-60 human leukemia cell line. Type of experiment: functional, cell-based.
Experiment [1] addresses T1, M-phase inducer phosphatase 2 (Homo sapiens, UniProt P30305).
T1 sequence (P30305 whole entry): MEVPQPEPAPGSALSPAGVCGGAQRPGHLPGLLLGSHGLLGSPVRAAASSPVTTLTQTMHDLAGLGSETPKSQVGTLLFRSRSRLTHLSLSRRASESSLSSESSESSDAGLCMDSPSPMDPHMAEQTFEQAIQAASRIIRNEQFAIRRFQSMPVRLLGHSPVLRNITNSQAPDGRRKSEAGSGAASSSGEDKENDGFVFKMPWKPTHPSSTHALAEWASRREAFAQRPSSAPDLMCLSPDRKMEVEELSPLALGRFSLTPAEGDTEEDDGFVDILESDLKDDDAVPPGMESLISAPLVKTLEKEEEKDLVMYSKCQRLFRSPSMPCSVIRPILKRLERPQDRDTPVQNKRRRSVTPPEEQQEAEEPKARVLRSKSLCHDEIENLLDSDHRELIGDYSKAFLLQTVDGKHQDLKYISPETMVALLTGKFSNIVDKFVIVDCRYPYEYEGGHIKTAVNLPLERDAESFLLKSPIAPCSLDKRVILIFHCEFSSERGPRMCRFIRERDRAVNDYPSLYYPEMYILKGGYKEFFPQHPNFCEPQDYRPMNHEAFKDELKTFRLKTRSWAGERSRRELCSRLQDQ
In words: The compound was tested for its inhibitory activity against Cell division cycle 25B.

In a further experiment the test system is SBC-5. In words: The compound was tested for its inhibitory activity against SBC-5 human lung cancer cell line. Type of experiment: functional, cell-based.
Experiment [2] addresses T2, M-phase inducer phosphatase 1 (Homo sapiens, UniProt P30304).
T2 sequence (P30304 whole entry): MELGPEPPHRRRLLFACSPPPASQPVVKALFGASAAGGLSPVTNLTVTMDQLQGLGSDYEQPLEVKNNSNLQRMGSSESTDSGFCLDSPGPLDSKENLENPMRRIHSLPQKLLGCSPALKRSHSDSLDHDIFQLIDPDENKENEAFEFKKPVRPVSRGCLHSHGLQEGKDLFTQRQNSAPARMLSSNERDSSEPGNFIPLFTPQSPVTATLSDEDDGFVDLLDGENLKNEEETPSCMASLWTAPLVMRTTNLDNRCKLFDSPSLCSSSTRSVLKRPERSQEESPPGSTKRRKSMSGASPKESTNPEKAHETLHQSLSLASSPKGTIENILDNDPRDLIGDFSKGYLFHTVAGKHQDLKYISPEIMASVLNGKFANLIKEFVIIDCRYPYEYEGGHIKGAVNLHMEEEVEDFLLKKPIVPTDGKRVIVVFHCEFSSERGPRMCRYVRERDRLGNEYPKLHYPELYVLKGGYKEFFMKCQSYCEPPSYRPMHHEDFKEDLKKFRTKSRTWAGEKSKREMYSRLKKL
In words: The compound was tested for its inhibitory activity against Cell division cycle 25A.

The record followed here is ChEMBL document CHEMBL1132817 (Bioorg Med Chem Lett, 2000).

As a reminder, the IC50 is the concentration needed to halve the response being measured. Read a high IC50 as lower potency.

`C=C(C)CCC[C@]1(C)CCC[C@@H]2C1=CC[C@@H](C)[C@@]2(C)C[C@@H](O)C1=CC(=O)O[C@H]1O` [DYSIDIOLIDE]: the figures for the IC50 (with HL-60; in experiment [1]; in the experiment on SBC-5) were 7.1 µM, 87 µM and 5.4 µM, respectively.

With `C=C(C)CCC[C@]1(C)CCC[C@@H]2C1=CC[C@@H](C)[C@@H]2C[C@H](O)C1=CC(=O)OC1O` (some centres undefined), the IC50 turned out to be 27 µM in experiment [1], 4.4 µM with SBC-5 and 15 µM in experiment [2].

With `C=C(C)CCC[C@]1(C)CCC[C@@H]2C1=CC[C@@H](C)[C@]2(C)C[C@H](O)C1=CC(=O)OC1O` (some centres undefined), the IC50 with HL-60 was 1 µM; in experiment [1] it was 18 µM; in the experiment with SBC-5, 1.3 µM.

In the case of `CC1(CC(O)C2=CC(=O)OC2O)CCCCC1` (centres undefined), the IC50 in experiment [1] was above 300 µM; in the experiment with SBC-5 it was 12 µM; in experiment [2] it was above 300 µM.

With `C=C(C)CCC[C@@]1(C)CCC[C@H]2C1=CC[C@H](C)[C@]2(C)C[C@H](O)C1=CC(=O)O[C@@H]1O` (stereo in doubt), the IC50 in experiment [1] is 19 µM; in the experiment on SBC-5 it was 16 µM.
